# In patent US5585367A (priority 1990, dated 1996):
# Several values for one entry are separate records, joined by “and”; a condition that tells them apart may be missing. Identical values can stand only once. Like-named read-outs stand apart in the source and are kept apart here.
# What was measured:
# HIV-1 strain IIIB /LAI = assay: Inhibition of HIV-1 replication in acutely infected PBLs (p24 ELISA); format: cell-based; settings: for Protection: "Toxic" means that the cells are destroyed
# Protocol: A new assay was conducted by the AIDS laboratory of the REGA Institute for Medical Research of the Katholieke Universiteit of Leuven.
# 1,1'-azobisformamide was purchased from Riedel de Haen and stored in a refrigerator (4°-8° C.) under light-protected conditions. Dilutions were prepared in order to obtain concentrations of 0.4 μg/ml, 2 μg/ml, 10 μg/ml, 50 μg/ml and 250 μg/ml.
# Peripheral Blood Lymphocytes (PBLs) were freshly collected from a single donor. PBLs were activated by phytohemagglutinin at 2 μg/ml during 3 days, and then cultured in the presence of IL-2 for 1 week.
# HIV-1 strain IIIB /LAI was provided by R. C. Gallo (Popovic M. et al, Science 1984, 224:497-500). Stocks were obtained from the culture supernatants of HIV-1 infected cell lines (HUT 78/IIIB /LAI).
# The inhibitory effects of 1,1'-azobisformamide on the replication of strain IIIB /LAI in PBLs were monitored by the detection of HIV-1 p24 core antigens. PBLs were incubated with an excess of strain IIIB /LAI at 37° C. for 60 min. All cells were washed once with RPMI 1640 medium. Thereafter cells were plated at 1×10^6 cells per ml in the presence of various concentrations of the test compound. Seven days after plating PBLs, p24 antigens were detected by enzyme-linked immunosorbent assay (ELISA) (HIV-1 p24 Core Profile ELISA from Du Pont).
# This method comprises measuring the concentration of the viral antigen p24 in the supernatant, i.e., the concentration of free viruses produced by replication of the viruses present in the infected cells. This measure is expressed as a measure of protection (see Table I below), where [formula]
# [1] = oral
# HIV [2] = assay: Inhibition of HIV replication, summary over strains and cells; format: cell-based, HIV-1 and HIV-2; settings: Human immunodeficiency virus 1, p24, 7 to 8 days after infection
# HIV-1 Wild A = assay: Inhibition of HIV replication in PBL's; format: cell-based; settings: Human immunodeficiency virus 1
# [3] = tested on: genes "GAG", "LTR" and "ENV" of the HIV-1 provirus; assay: Integration of viral genome into chromosomic DNA of Supt-1 cells (PCR); format: cell-based; settings: 35 μgr/ml; virus incubated for 15 minutes
# Protocol: By means of a genetic amplification through a thermostable polymerase, the presence of genes "GAG", "LTR" and "ENV" of the HIV-1 provirus is evidenced. This method is called P.C.R. Polymerase chain Reaction) (Chin-Yih Ou et al., Sciences 239, 295-297, 1988).
# Said method is applied for detecting HIV-1 provirus in the genome of Supt-1 cells inoculated with HIV-1 virus incubated with […] (dilution 1/100), as described in Example 8
# Amplified oligonucleotides, UV visible by means of ethidium bromide appear only in the tubes corresponding to an inoculation with HIV-1 viruses which were not treated with the active substance.
# One proceeds as in Example 11(c). The search of genes "GAG", "LTR" and "ENV" has been made in cellular cultures inoculated with a virus incubated for 15 minutes with the active substance. This search is appeared as being negative, and thus it can be concluded that 1.1'-azobisformamide at the dosage of 35 μgr/ml protects the cells against infection by HIV-1.
# Examples 10c and 11c disclose a more accurate method than the ELISA test for examining whether the inoculated cells contain HIV-1 at the end of the assay, i.e., the PCR-Method.
# T4 lymphocytes [4] = assay: Treatment of three patients presenting different stages of AIDS; format: in vivo, human; settings: first patient (final phase), 1500 mgr a day, day 30; day 0: 24 cells
# [5] = tested on: Vesicular Stomatitis Virus (VSV); assay: microbe, parasite or virus in culture; format: cell-based; design: TCID 50: unit not given here; settings: for log reduction at 50 µg/mL / log reduction at 100 µg/mL / log reduction at 150 µg/mL / log reduction at 250 µg/mL: Vesicular stomatitis virus, Vero
# HIV [6] = assay: In-vitro combination with didanosine; format: cell-based; settings: at and below the IC50
# T4 lymphocytes [7] = assay: Treatment of three patients presenting different stages of AIDS; format: in vivo, human
# Protocol: Three sound volunteers were treated for 30 days with 1500 mgr a day of a azobisformamide in three portions of 500 mgr.
# On the other handy three patients presenting different stages of AIDS were also treated with azobisformamide in the same dosages as he sound volunteers.
# The first patient in final phase presented at least 30 T4 lymphocytes/mm^3, abundant diarrheas and a complete space-time disorientation.
# The second patient in "ARC" phase presented a lymphocytar T4 population of 190/ mm^3, in constant decrease, as well as occasional diarrheas and anal herpes.
# pepsin = assay: Inhibition of pepsin; format: biochemical
structure (smiles),measurement,setting,value
"NC(=O)N=NC(N)=O [ADA, 1,1'-azobisformamide]",Protection,HIV-1 strain IIIB /LAI; 50 μg/ml,Toxic
same,Protection,HIV-1 strain IIIB /LAI; 250 μg/ml,Toxic
same,inhibition at 0.4 µg/mL,"HIV-1 strain IIIB /LAI; Human immunodeficiency virus 1, IIIB, 168 h, 0.4 μg/ml, read-out: Protection",15.2%
same,inhibition at 2 µg/mL,"HIV-1 strain IIIB /LAI; Human immunodeficiency virus 1, IIIB, 168 h, 2 μg/ml, read-out: Protection",45.8%
same,inhibition at 10 µg/mL,"HIV-1 strain IIIB /LAI; Human immunodeficiency virus 1, IIIB, 168 h, 10 μg/ml, read-out: Protection",77.6%
same,IC50,"HIV-1 strain IIIB /LAI; Human immunodeficiency virus 1, PBLs acutely infected with IIIB /LAI",2.47 µg/mL
same,absorption,[1],absorbed via the gastro-intestinal route
same,distribution,[1],distributes readily to intracellular compartments
same,IC50,HIV [2]; read-out: IC50 range,1.6 to 14.8 µg/mL
same,IC50,HIV [2]; read-out: median IC50,8 µg/mL
same,IC50,HIV-1 Wild A,8.9 µg/mL
same,IC90,HIV-1 Wild A,17.4 µg/mL
same,"search of genes ""GAG"", ""LTR"" and ""ENV""",[3],negative
same,T4 lymphocytes,T4 lymphocytes [4],49 cells/mm^3
same,TCID 50,[5],6.90 and 6.73 and 6.55 and 4.28 and 3.75 and 3.58 and 3.93
same,log reductions,[5],> 2.0
same,log reduction at 50 µg/mL,"[5]; 10 min, read-out: Log Red",1.05
same,log reduction at 100 µg/mL,"[5]; 10 min, read-out: Log Red",1.22
same,log reduction at 150 µg/mL,"[5]; 10 min, read-out: Log Red",1.22
same,log reduction at 250 µg/mL,"[5]; 10 min, read-out: Log Red",1.4
same,log reduction at 50 µg/mL,"[5]; 1 h, read-out: Log Red",1.4
same,log reduction at 100 µg/mL,"[5]; 1 h, read-out: Log Red",1.22
same,log reduction at 150 µg/mL,"[5]; 1 h, read-out: Log Red",1.4
same,log reduction at 250 µg/mL,"[5]; 1 h, read-out: Log Red",1.4
same,log reduction at 50 µg/mL,"[5]; 20 h, read-out: Log Red",1.75
same,log reduction at 100 µg/mL,"[5]; 20 h, read-out: Log Red",2.28
same,log reduction at 150 µg/mL,"[5]; 20 h, read-out: Log Red",2.45
same,log reduction at 250 µg/mL,"[5]; 20 h, read-out: Log Red",2.1
same,log reduction at 150 µg/mL,[5]; read-out: log reduction (strongest effect),2.28
same,combination with didanosine,HIV [6],additive effects
same,coherent talking,"T4 lymphocytes [7]; first patient, day 30",recovered their possibility of coherent talking
same,diarrhea,"T4 lymphocytes [7]; first patient, day 30",the diarrhea has ended
same,walking autonomy,"T4 lymphocytes [7]; first patient, day 30",limited walking autonomy
same,lymphocytes presenting the T4 receptor,"T4 lymphocytes [7]; first patient, day 30, day 0: 5%",9%
same,"lymphocytes, % of white corpuscules","T4 lymphocytes [7]; first patient, day 30, day 0: 17%",20%
same,white corpuscules,"T4 lymphocytes [7]; first patient, day 30, day 0: 1850",2600
same,improvement of T4 lymphocytes,"T4 lymphocytes [7]; first patient, day 30 vs day 0",100%
same,T4 lymphocytes,"T4 lymphocytes [7]; second patient (""ARC"" phase), day 30, before: 190",280 T4 lymphocytes/ mm^3
same,diarrhea and anal herpes,"T4 lymphocytes [7]; second patient, day 30",the diarrhea had completely disappeared as well as the anal herpes
same,T4 lymphocytes,"T4 lymphocytes [7]; third patient (sound seropositive), day 30, before: 350",440 T4 lymphocytes/ mm^3
same,inhibition of pepsin,pepsin,does not inhibit pepsin
